Holding throughout (assay type): cell-based, human
The subject of one assay is Colo320-SLC6A6-OEx. As to the kind of experiment: Ratio of SP cells upon addition of taurine, Colo320-SLC6A6-OEx. The protocol:
(§1) After being transformed in the same manner as shown in Example 8(1) above, the cells were detached on the second day with DISSOCIATION BUFFER (Invitrogen). The cells were stained at 37° C. for 1 hour with a solution prepared to contain 10 μg/mL Hoechst 33342 in PBS(−), followed by analysis using FACS Canto II and a Violet laser (excitation wavelength: 407 nm). Moreover, to identify an SP fraction, an additional experiment was conducted in which verapamil serving an inhibitor of drug efflux transporters was added at a concentration of 30 μg/mL.
(§2) For this analysis, Colo320 cells (which are human colorectal cancer cells) were engineered to overexpress SLC6A6 and cultured for 2 days in a medium supplemented with taurine at a concentration of 0.05 mM, 0.1 mM, 0.5 mM, 1 mM or 5 mM, and then analyzed for SP cells in the same manner as shown in Example 1(3).

The subject of a further assay is Colo320-Mock. As to the kind of experiment: Ratio of SP cells upon addition of taurine, Colo320-Mock. Conditions: taurine 0.05-5 mM, FIG. 10. The protocol: as §1, §2
Assay [1] deals with SW480 cells (SP and MP fractions). As to the kind of experiment: FACS staining of SP and MP fractions of SW480 cells. Conditions: SW480, verapamil 30 μg/mL. The protocol: Moreover, to identify an SP fraction, an additional experiment was conducted in which verapamil serving an inhibitor of drug efflux transporters was added at a concentration of 30 μg/mL.
SLC6A6 expression was analyzed for the SP fraction and non-SP fraction (i.e., major population (MP) fraction) of SW480 cells, which are human colorectal cancer cells.

With `NCCS(=O)(=O)O` [taurine], the “increase of ratio of SP cells compared to the absence of taurine” value with Colo320-SLC6A6-OEx (5 mM taurine) was “about 2.5 fold”. Besides, in the assay on Colo320-SLC6A6-OEx (5 mM taurine, cultured 2 days (17.0% in the absence of taurine)), the “ratio of SP cells” value amounted to 26.7%. For the same compound, the “number of SP cells” value is “increased in a manner dependent on the added concentration of taurine” in the assay with Colo320-SLC6A6-OEx (taurine 0.05-5 mM, FIG. 10) and “increased in a manner dependent on the added concentration of taurine” in the assay on Colo320-Mock.
In the case of `COc1ccc(CCN(C)CCCC(C#N)(c2ccc(OC)c(OC)c2)C(C)C)cc1OC` (centres unmarked) [verapamil], the “SP cells in the presence of verapamil” value in assay [1] is reported as “no SP cells were observed”.

These data come from patent publication US10214584B2, “Therapeutic pharmaceutical composition employing anti-SLC6A6 antibody” (ORDER-MADE MEDICAL RESEARCH INC., priority 2014, dated 2019).
